The values that follow come from patent US11377496B2, “Targeting agent antibody conjugates and uses thereof” (The Scripps Research Institute, priority 2013, dated 2022).

Usually Km stands for the substrate concentration at which the rate is half of its maximum. For orientation: pIC50 means the IC50 on a negative log10 scale, so that one unit is a factor of ten. For orientation: pKi means the negative decadic logarithm of the Ki, by convention in mol/L.

pIC50, pKi: −log10 of the molar value. Several values for one entry are separate records, joined by “and”; a condition that tells them apart may be missing. Equal values may be shown once. Read-outs that look alike come from different tables or passages of the source. Where a SMILES comes first, the peptide text is derived from it.

The target of one series is mPSMA (Mus musculus, UniProt O35409). To be noted: cited from earlier work.
The next series has as its system cynoPSMA. The following applies: previous reports; cited from earlier work.
In the next series the target is T1, rhPSMA (Homo sapiens, UniProt Q04609).
T1 construct: purchased R&D research
The series is described as follows: PSMA inhibition assay. The following applies: for RFU: KM measurement; for Relative Fluorescence Units: glutamic acid readout, Amplex Red. Type of series: biochemical. On the procedure: A 10 mM solution of N-acetyl-aspartyl-glutamate (NAAG) in 40 mM NaOH was diluted to 40 μM in Reaction Buffer (0.1 M Tris-HCl, pH=7.5), and the solution was added to a 384 well plate (10 μL per well). For KM measurements and KM negative controls (absence of PSMA), the NAAG solution was serially diluted 2-fold to obtain final NAAG concentrations ranging […]. […] To initiate reactions, 10 μL of rhPSMA ([…] in Reaction Buffer, R&D research) was added to each well. Reaction Buffer (10 μL) was added to the KM control series. The plate was incubated at 37° C. for 30 min, and then heated to 95° C. for 3 min. Levels of glutamic acid were quantified using Amplex® Red Glutamic Acid/Glutamate Oxidase Assay Kit (Invitrogen). Fluorescence intensities were measured using a SpectraMax Gemini EM microplate reader (GMI) with excitation and emission filters of 545 and 590 nm, respectively. Ki values were calculated using the Cheng-Prusoff equation from IC50 and KM values and these values were calculated using GraphPad Prism software. […] All reported data represent the mean of triplicate experiments.

Series [1] is described as follows: Pharmacokinetics in rats, intravenous, sandwich-ELISA. To be noted: rat, 0.5 mg/kg. It counts as in vivo, Sprague Dawley rats. On the procedure: We first evaluated the pharmacokinetics of the P-targeting agent antibody conjugate. Male Sprague Dawley rats (Charles River) were injected intravenously at time zero at 1 and 5 mg/kg for P-targeting agent antibody conjugate or 0.5 mg/kg for the unconjugated UCHT1 Fab. Blood was collected at regular intervals to 32 hours and processed to measure drug concentrations using a sandwich-ELISA. […] Also, the small size of P-targeting agent antibody conjugate may be advantageous for penetrating solid tumors.
Background: In an ELISA, binding on a coated surface is turned into a signal by an enzyme label.

For the next series, the system named is C4-2 (PSMA+) cells. As to the kind of experiment: In vitro cytotoxicity assays, C4-2 cells with PBMCs, 24 and 48 hours (Example 5). Type of series: cell-based, human. On the procedure: Peripheral blood mononuclear cells (PBMCs) were purified from fresh healthy human donor blood by conventional Ficoll-Hypaque gradient centrifugation. Purified PBMCs were washed and incubated in flasks in RPMI media with 10% FBS for 1 hours to remove any adherent cells. C4-2 (PSMA+) cells (target cells) were dissociated with 0.05% tryspin/EDTA solution (HyClone) and washed with RPMI with 10% FBS. 1×10^4 target cells were mixed with PBMCs at 1:10 ratio in […], and incubated with different concentrations of conjugated and unconjugated Fabs ([…]) for 24 and 48 hours at 37° C. Cytotoxicity of each well was measured for LDH (lactate dehydrogenase) levels in supernatant using Cytotox-96 non-radioactive cytotoxicity assay kit (Promega). Lysis solution ([…], provided in the same kit) was added to wells with only target cells to get the maximum killing, and spontaneous killing was measured from wells with effector and target cells treated with vehicle ([…]). The absorbance at 490 nm was recorded using SpectraMax 250 plate reader (Molecular Devices Corp.). Percent cytotoxicity was calculated by: % Cytotoxicity=(Absorbanceexpt−Absorbancespontaneous average)/(Absorbancemax killing average−Absorbancespontaneous average)×100

Another series addresses CD3 (Macaca fascicularis, UniProt Q95LI5). The series is described as follows: Cyno cross-reactivity of anti-CD3 antibody. Type of series: binding, cynomolgus macaque.
A further series deals with C4-2 cells. As to the kind of experiment: Prophylactic mouse xenograft model, C4-2 cells mixed with hPBMCs. Type of series: in vivo, NOD/SCID mice. To be noted: 2 mg/kg IV daily for 10 days from Day 4; monitored 6 weeks. On the procedure: FIG. 12 depicts in vivo efficacy studies of P-targeting agent antibody conjugate. In the prophylactic model, 1×10^6 C4-2 cells were mixed with 2×10^6 PBMCs (1:2 ratio) in Matrigel and injected SC into the right shoulder of male NOD-SCID mice. P-targeting agent antibody conjugate, unconjugated Fab, or PBS (n=6) were administered at 2 mg/kg everyday for 10 days by IV starting on Day 4. Tumors were monitored by external caliper measurements for regular intervals for 6 weeks.
We next established a mouse xenograft model to evaluate the in vivo efficacy of P-targeting agent antibody conjugate. Immunodeficient NOD/SCID mice were subcutaneously injected with a mixture of 1×10^6 C4-2 cells and 2×10^6 hPBMCs in matrigel (BD Bioscience). After 4 days, treatment was initiated by injecting 2 mg/kg of drug via the tail vein and continued for 10 days (n=6). In a control group, mice were injected with an unconjugated mixture of P-Phthal (3) and UCHT1 wild-type Fab, and another group of mice was injected with vehicle alone (n=6). Tumor growth was monitored by external caliper measurement. […] After confirming the prophylactic efficacy of P-targeting agent antibody conjugate, we carried a xenograft model in which we delayed treatment until we observed the formation of a palpable tumor. […]

Setting [2] is: average of three trials, read-out: Average Ki.
[3] abbreviates: enzyme-based inhibition assay, read-out: average Ki.

T1 sequence (Q04609 whole entry): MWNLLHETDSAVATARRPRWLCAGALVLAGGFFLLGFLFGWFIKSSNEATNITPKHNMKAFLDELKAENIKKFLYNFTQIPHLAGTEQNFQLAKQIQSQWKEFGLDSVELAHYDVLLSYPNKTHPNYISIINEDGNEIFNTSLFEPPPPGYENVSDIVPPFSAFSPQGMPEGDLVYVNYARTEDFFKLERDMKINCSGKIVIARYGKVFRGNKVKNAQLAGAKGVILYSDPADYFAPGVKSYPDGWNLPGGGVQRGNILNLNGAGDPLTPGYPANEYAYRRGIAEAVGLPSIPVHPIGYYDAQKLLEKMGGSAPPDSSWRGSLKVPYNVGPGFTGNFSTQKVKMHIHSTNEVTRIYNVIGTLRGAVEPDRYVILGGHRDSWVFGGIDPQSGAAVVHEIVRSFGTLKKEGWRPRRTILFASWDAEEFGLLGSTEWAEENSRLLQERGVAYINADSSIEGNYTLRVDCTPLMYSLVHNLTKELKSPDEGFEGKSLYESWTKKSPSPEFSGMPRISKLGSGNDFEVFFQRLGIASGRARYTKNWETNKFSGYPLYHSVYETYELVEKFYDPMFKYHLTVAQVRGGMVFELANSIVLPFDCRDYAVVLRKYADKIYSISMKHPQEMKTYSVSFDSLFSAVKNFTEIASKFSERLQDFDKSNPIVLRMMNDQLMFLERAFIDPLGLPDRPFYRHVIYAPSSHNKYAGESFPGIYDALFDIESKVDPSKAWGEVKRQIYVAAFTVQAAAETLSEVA
Sequence of CD3 (Q95LI5 22-198): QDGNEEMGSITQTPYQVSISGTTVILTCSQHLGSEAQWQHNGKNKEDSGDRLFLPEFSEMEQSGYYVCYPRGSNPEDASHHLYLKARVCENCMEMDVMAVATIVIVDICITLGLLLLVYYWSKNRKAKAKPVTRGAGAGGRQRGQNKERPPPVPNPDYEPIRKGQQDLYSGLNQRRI
Sequence of CD3 (Q95LI8 22-171 partner): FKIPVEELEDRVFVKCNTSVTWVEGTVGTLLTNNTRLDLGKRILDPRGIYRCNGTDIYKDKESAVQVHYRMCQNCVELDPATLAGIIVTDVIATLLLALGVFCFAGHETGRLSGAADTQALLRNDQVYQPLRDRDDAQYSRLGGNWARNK
Sequence of CD3 (Q95LI7 23-181 partner): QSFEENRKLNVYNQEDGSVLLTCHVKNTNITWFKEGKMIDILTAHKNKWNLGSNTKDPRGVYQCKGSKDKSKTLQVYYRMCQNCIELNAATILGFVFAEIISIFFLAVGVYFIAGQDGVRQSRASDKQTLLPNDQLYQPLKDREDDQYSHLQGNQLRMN
Sequence of mPSMA (O35409 whole entry): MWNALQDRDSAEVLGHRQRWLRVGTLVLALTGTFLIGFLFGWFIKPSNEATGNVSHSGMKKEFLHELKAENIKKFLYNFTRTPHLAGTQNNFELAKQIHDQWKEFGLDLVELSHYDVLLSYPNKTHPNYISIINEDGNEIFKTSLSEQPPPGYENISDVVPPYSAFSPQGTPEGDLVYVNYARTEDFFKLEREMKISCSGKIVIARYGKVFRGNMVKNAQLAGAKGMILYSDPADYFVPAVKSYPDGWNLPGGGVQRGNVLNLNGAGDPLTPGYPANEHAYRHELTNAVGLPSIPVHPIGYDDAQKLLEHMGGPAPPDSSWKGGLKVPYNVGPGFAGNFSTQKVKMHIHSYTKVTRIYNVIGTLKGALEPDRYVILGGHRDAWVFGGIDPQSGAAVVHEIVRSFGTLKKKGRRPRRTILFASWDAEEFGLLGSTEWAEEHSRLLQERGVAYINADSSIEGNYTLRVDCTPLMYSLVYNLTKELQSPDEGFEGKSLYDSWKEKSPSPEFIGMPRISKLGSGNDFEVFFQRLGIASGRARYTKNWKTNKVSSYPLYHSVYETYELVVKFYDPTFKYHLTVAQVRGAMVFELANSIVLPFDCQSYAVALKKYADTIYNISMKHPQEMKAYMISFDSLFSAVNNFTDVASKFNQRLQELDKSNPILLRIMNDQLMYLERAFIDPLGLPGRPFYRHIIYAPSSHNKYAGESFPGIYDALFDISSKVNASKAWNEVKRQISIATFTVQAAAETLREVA

Regarding `O=C(O)CCC(NC(=O)NC(CCC(=O)O)C(=O)O)C(=O)O` (stereo not drawn) [DUPA, 2-[3-(1,3-dicarboxypropy)ureidol]pentanedioic acid], the “binding to mPSMA (in words)” value on mPSMA is recorded as “strongly binds”. In addition, the “inhibition of glutamate carboxy peptidase activity of cynoPSMA (in words)” value in the series with cynoPSMA is “efficiently inhibited”.
Consider `CC(=O)N[C@@H](CC(=O)O)C(=O)N[C@@H](CCC(=O)O)C(=O)O` [NAAG, N-acetyl-aspartyl-glutamate, reference compound] (Ac-Asp-Glu-OH), for which the RFU is recorded as 403 on rhPSMA (NAAG 0.15625 μM); 400.6455 at rhPSMA (NAAG 0.3125 μM); 422.2 on rhPSMA (NAAG 0.625 μM); 434.8145 on rhPSMA (NAAG 1.25 μM); 447 on rhPSMA (NAAG 2.5 μM); 480.622 on rhPSMA (NAAG 5 μM). For the same compound, the RFU on rhPSMA (NAAG 10 μM) is given as 549.6; on rhPSMA (NAAG 20 μM) it was 653.474. On rhPSMA (substrate NAAG), the Km turned out to be 0.288 µM.
For the compound `NOCC(=O)NCCOCCOCCNc1cc(NCCOCCOCCNC(=O)CCCCCCCNC(=O)CCC(NC(=O)NC(CCC(=O)O)C(=O)O)C(=O)O)c([N+](=O)[O-])cc1[N+](=O)[O-]` (stereo not drawn) [P-DNP], the pIC50 against rhPSMA (Trials 1-3) is 8.14 and 8.35 and 8.34. The pKi at rhPSMA (setting [2]) was 10.32. Besides, the “Relative Fluorescence Units” value turned out to be 1650.519 at rhPSMA (inhibitor 0.0000256 μM); 1558 on rhPSMA (inhibitor 0.000128 μM); 1413.9875 at rhPSMA (inhibitor 0.00064 μM); 1123.0625 on rhPSMA (inhibitor 0.0032 μM); 896.8 at rhPSMA (inhibitor 0.016 μM); 704.2 on rhPSMA (inhibitor 0.08 μM). Besides, the “Relative Fluorescence Units” value at rhPSMA (inhibitor 0.4 μM) was found to be 622.7; at rhPSMA (inhibitor 2 μM), 586.843; at rhPSMA (inhibitor 10 μM), 581.8; on rhPSMA (inhibitor 50 μM), 525.6755.
For the compound `NOCC(=O)NCCOCCOCCNC(=O)c1ccc(C(=O)NCCOCCOCCNC(=O)CCCCCCCNC(=O)CCC(NC(=O)NC(CCC(=O)O)C(=O)O)C(=O)O)cc1` (stereo not drawn) [P-Phthal], on rhPSMA (Trials 1-3), the pIC50 is 6.68 and 6.40 and 6.65. In addition, the pKi at rhPSMA (setting [2]) and at rhPSMA (setting [3]) was 8.70 in each case. For the same compound, the “Relative Fluorescence Units” value is reported as 1609 at rhPSMA (inhibitor 0.0000256 μM); 1592.5445 at rhPSMA (inhibitor 0.000128 μM); 1633.913 at rhPSMA (inhibitor 0.00064 μM); 1542.606 at rhPSMA (inhibitor 0.0032 μM); 1387.603 on rhPSMA (inhibitor 0.016 μM); 1274 at rhPSMA (inhibitor 0.08 μM). Further, the “Relative Fluorescence Units” value on rhPSMA (inhibitor 0.4 μM) was found to be 1021; at rhPSMA (inhibitor 2 μM), 798.9; on rhPSMA (inhibitor 10 μM), 688.1815; on rhPSMA (inhibitor 50 μM) it was 581.035.
`NOCC(=O)NCCOCCOCCOCCNC(=O)c1ccc(C(=O)NCCCCCCc2cn(CCCC[C@H](NC(=O)N[C@@H](CCC(=O)O)C(=O)O)C(=O)O)nn2)cc1` [P-TriA, (S)-2-(3-((S)-5-(4-(6-(4-(1-(aminooxy)-2-oxo-6,9,12-trioxa-3-azatetradecan-14-ylcarbamoyl)benzamido)hexyl)-1H-1,2,3-triazol-1-yl)-1-carboxypentyl)ureido)pentanedioic acid]: the pKi is 11.21 and 11.64 and 11.23 at rhPSMA (Trials 1-3, Cheng-Prusoff equation from IC50 and KM, read-out: Ki); 11.32 at rhPSMA (setting [2]); 11.32 at rhPSMA (setting [3]). On rhPSMA (compared to P-Phthal), the enhanced affinity entry is given as “more than 400 fold”. Also, the “Relative Fluorescence Units” value at rhPSMA (inhibitor 0.0000256 μM) is 1619; on rhPSMA (inhibitor 0.000128 μM) it was 1499.6145; on rhPSMA (inhibitor 0.00064 μM), 1259; on rhPSMA (inhibitor 0.0032 μM) it was 950.487; on rhPSMA (inhibitor 0.016 μM) it was 817.1; at rhPSMA (inhibitor 0.08 μM), 664.949. The “Relative Fluorescence Units” value on rhPSMA (inhibitor 0.4 μM) is 586.721; on rhPSMA (inhibitor 2 μM) it was 562.9; on rhPSMA (inhibitor 10 μM), 599.969; on rhPSMA (inhibitor 50 μM) it was 559.8.
wt-UCHT1: the circulating half-life in series [1] is approximately 1 h. For the same compound, the “% Cytotoxicity” value in the series with C4-2 (PSMA+) cells (24 h, 0.0512 pM) is given as −0.1753%; with C4-2 (PSMA+) cells (24 h, 0.256 pM) it was −0.8764%; in the series on C4-2 (PSMA+) cells (24 h, 1.28 pM) it was −0.9115%; in the series with C4-2 (PSMA+) cells (24 h, 6.4 pM), −0.4733%; in the series with C4-2 (PSMA+) cells (24 h, 32 pM), −0.7537%; in the series on C4-2 (PSMA+) cells (24 h, 160 pM), −0.4032%. For the same compound, the “% Cytotoxicity” value is 1.192% in the series with C4-2 (PSMA+) cells (24 h, 800 pM); 1.858% with C4-2 (PSMA+) cells (24 h, 4000 pM); −0.609% in the series on C4-2 (PSMA+) cells (48 h, 0.01024 pM); −1.023% in the series with C4-2 (PSMA+) cells (48 h, 0.0512 pM); −0.5196% in the series on C4-2 (PSMA+) cells (48 h, 0.256 pM); −0.0812% with C4-2 (PSMA+) cells (48 h, 1.28 pM). Besides, the “% Cytotoxicity” value in the series on C4-2 (PSMA+) cells (48 h, 6.4 pM) is recorded as −0.4872%; in the series on C4-2 (PSMA+) cells (48 h, 32 pM) it was −1.104%; in the series with C4-2 (PSMA+) cells (48 h, 160 pM) it was −0.9419%; with C4-2 (PSMA+) cells (48 h, 800 pM) it was 4.872%. In the series with CD3, the “cyno cross-reactivity (in words)” value is “not sufficiently cyno cross-reactive”. In addition, the “tumor growth (in words)” value in the series on C4-2 cells is reported as “developed rapid tumors”.
